Measurements reported in patent US10993943B2, “Crystalline forms of selinexor and process for their preparation” (WATSON LABORATORIES INC., priority 2017, dated 2021).

Assay: Solubility in aqueous medium (buffers at pH 1.2, 4.5, 6.8)
Assay type: physicochemical
Settings: Form T8 in comparison with Form A

| solubility in aqueous medium (pH 4.5 (acetate buffer)) | solubility in aqueous medium (pH 6.8 (phosphate buffer)) | solubility in aqueous medium (pH=1.2 (HCl buffer)) | SMILES |
| --- | --- | --- | --- |
| enhanced solubility | enhanced solubility | enhanced solubility | O=C(/C=C\n1cnc(-c2cc(C(F)(F)F)cc(C(F)(F)F)c2)n1)NNc1cnccn1 [Form T8, (Z)-3-(3-(3,5-bis(trifluoromethyl)phenyl)-1H-1,2,4-triazol-1-yl)-N′-(pyrazin-2-yl) acrylohydrazide] |
| practically insoluble | practically insoluble | practically insoluble | O=C(/C=C\n1cnc(-c2cc(C(F)(F)F)cc(C(F)(F)F)c2)n1)NNc1cnccn1 [Form A, (Z)-3-(3-(3,5-bis(trifluoromethyl)phenyl)-1H-1,2,4-triazol-1-yl)-N′-(pyrazin-2-yl) acrylohydrazide] |
